Activity calls are given as the source filed them. The rule behind the calls is not given here.
Legend:
A549 [1] = test: Antiproliferative activity against human A549 cells assessed as inhibition of cell growth measured after 72 hrs by CCK-8 method; assay type: functional, cell-based
A549 [2] = test: Inhibition of colony formation in human A549 cells assessed as reduction in cell proliferation at 2.5 to 10 uM measured after 7 to 10 days with media replenishment along with compound for every 3 days by crystal violet staining based analysis; assay type: functional; settings: dose 2.5-10 µM, time 7-10 day
HCT-116 [3] = test: Inhibition of colony formation in human HCT-116 cells assessed as reduction in cell proliferation at 2.5 to 10 uM measured after 7 to 10 days with media replenishment along with compound for every 3 days by crystal violet staining based analysis; assay type: functional; settings: dose 2.5-10 µM, time 7-10 day
A549 [4] = test: Effect on OASL gene in human A549 cells at 10 uM measured after 20 hrs by RNA sequencing analysis; assay type: functional, cell-based
A549 [5] = test: Effect on MAFK gene in human A549 cells at 10 uM measured after 20 hrs by RNA sequencing analysis; assay type: functional, cell-based
A549 [6] = test: Effect on EREG gene in human A549 cells at 10 uM measured after 20 hrs by RNA sequencing analysis; assay type: functional, cell-based
A549 [7] = test: Effect on ARPIN gene in human A549 cells at 10 uM measured after 20 hrs by RNA sequencing analysis; assay type: functional, cell-based
A549 [8] = test: Effect on FSTL4 gene in human A549 cells at 10 uM measured after 20 hrs by RNA sequencing analysis; assay type: functional, cell-based
A549 [9] = test: Downregulation of HSPA6 in human A549 cells measured after 20 hrs by proteomic analysis; assay type: functional, cell-based
A549 [10] = test: Downregulation of IL6ST in human A549 cells measured after 20 hrs by proteomic analysis; assay type: functional, cell-based
A549 [11] = test: Downregulation of RIMKLB in human A549 cells measured after 20 hrs by proteomic analysis; assay type: functional, cell-based
A549 [12] = test: Induction of apoptosis in human A549 cells assessed as viable cells at 20 uM incubated for 72 hrs by annexin V-FITC staining based flow cytometry (reference value: 99.9%); assay type: functional; settings: read-out: Activity
A549 [13] = test: Induction of apoptosis in human A549 cells assessed as early apoptotic cells at 20 uM incubated for 72 hrs by annexin V-FITC staining based flow cytometry (reference value: 0.099%); assay type: functional
A549 [14] = test: Induction of apoptosis in human A549 cells assessed as late apoptotic cells at 5 uM incubated for 72 hrs by annexin V-FITC staining based flow cytometry (reference value: 0.048%); assay type: functional
A549 [15] = test: Induction of apoptosis in human A549 cells assessed as late apoptotic cells at 10 uM incubated for 72 hrs by annexin V-FITC staining based flow cytometry (reference value: 0.048%); assay type: functional
A549 [16] = test: Induction of apoptosis in human A549 cells assessed as necrotic cells at 20 uM incubated for 72 hrs by annexin V-FITC staining based flow cytometry relative to control; assay type: functional
A549 [17] = test: Induction of apoptosis in human A549 cells assessed as upregulation of cleaved caspase-3 level measured after 48 hrs by Western blot analysis; assay type: functional, cell-based; settings: dose 1.25-20 µM
A549 [18] = test: Induction of apoptosis in human A549 cells assessed as viable cells at 5 uM by annexin V-FITC staining based flow cytometry (reference value: 100%); assay type: functional; settings: read-out: Activity
A549 [19] = test: Induction of apoptosis in human A549 cells assessed as early apoptotic cells at 5 uM by annexin V-FITC staining based flow cytometry (reference value: 0%); assay type: functional
A549 [20] = test: Induction of apoptosis in human A549 cells assessed as late apoptotic cells at 5 uM by annexin V-FITC staining based flow cytometry (reference value: 0.00%); assay type: functional
HCT-116 [21] = test: Induction of apoptosis in human HCT-116 cells assessed as necrotic cells at 5 uM incubated for 48 hrs by annexin V FITC and propidium iodide based flow cytometry relative to control; assay type: functional
A549 [22] = test: Induction of cell cycle arrest in human A549 cells assessed as accumulation of cells at G2/M phase at 20 uM measured after 72 hrs by propidium iodide staining based flow cytometry analysis; assay type: functional
[23] = biological target: Protein cereblon/Histone deacetylase 3 (Homo sapiens) (UniProt O15379+Q96SW2); test: Protac activity at CRBN/HDAC3 in human A549 cells assessed as reduction in HDAC3 protein level at 0.1 to 10 uM by Western blot analysis; assay type: cell-based; settings: dose 0.1-10 µM
Protein cereblon/Histone deacetylase 3 (Homo sapiens), sequence (O15379 whole entry, looked up): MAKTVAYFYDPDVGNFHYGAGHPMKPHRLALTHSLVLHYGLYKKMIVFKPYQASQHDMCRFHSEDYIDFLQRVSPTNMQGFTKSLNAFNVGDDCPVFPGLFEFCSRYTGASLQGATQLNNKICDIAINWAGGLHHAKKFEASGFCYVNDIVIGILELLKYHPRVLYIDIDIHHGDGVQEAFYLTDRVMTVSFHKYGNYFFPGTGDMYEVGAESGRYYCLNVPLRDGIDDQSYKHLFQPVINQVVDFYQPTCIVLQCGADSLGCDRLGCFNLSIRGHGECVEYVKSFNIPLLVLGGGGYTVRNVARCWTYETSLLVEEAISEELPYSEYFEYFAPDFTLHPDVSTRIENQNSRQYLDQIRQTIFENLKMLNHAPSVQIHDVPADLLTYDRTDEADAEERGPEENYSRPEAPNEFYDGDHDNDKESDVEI
Protein cereblon/Histone deacetylase 3 (Homo sapiens), sequence (Q96SW2 whole entry, looked up): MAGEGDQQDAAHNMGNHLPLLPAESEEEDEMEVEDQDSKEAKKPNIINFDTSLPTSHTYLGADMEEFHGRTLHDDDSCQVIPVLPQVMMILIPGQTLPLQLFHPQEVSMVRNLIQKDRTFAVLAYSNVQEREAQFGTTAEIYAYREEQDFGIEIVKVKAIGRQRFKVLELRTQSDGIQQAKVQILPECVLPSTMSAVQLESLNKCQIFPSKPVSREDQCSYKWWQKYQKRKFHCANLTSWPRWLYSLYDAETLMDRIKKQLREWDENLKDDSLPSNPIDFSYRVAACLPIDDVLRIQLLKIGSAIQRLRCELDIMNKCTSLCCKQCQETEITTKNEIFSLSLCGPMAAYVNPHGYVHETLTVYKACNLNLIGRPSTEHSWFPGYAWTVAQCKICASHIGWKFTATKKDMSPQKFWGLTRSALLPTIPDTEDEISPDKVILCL

[24] = biological target: Protein cereblon/Protein deacetylase HDAC6 (Homo sapiens) (UniProt Q9UBN7+Q96SW2); test: Protac activity at CRBN/HDAC6 in human A549 cells assessed as reduction in HDAC6 protein level at 0.1 to 10 uM by Western blot analysis; assay type: cell-based; settings: dose 0.1-10 µM
Protein cereblon/Protein deacetylase HDAC6 (Homo sapiens), sequence (Q96SW2 whole entry, looked up): as above
Protein cereblon/Protein deacetylase HDAC6 (Homo sapiens), sequence (Q9UBN7 whole entry, looked up): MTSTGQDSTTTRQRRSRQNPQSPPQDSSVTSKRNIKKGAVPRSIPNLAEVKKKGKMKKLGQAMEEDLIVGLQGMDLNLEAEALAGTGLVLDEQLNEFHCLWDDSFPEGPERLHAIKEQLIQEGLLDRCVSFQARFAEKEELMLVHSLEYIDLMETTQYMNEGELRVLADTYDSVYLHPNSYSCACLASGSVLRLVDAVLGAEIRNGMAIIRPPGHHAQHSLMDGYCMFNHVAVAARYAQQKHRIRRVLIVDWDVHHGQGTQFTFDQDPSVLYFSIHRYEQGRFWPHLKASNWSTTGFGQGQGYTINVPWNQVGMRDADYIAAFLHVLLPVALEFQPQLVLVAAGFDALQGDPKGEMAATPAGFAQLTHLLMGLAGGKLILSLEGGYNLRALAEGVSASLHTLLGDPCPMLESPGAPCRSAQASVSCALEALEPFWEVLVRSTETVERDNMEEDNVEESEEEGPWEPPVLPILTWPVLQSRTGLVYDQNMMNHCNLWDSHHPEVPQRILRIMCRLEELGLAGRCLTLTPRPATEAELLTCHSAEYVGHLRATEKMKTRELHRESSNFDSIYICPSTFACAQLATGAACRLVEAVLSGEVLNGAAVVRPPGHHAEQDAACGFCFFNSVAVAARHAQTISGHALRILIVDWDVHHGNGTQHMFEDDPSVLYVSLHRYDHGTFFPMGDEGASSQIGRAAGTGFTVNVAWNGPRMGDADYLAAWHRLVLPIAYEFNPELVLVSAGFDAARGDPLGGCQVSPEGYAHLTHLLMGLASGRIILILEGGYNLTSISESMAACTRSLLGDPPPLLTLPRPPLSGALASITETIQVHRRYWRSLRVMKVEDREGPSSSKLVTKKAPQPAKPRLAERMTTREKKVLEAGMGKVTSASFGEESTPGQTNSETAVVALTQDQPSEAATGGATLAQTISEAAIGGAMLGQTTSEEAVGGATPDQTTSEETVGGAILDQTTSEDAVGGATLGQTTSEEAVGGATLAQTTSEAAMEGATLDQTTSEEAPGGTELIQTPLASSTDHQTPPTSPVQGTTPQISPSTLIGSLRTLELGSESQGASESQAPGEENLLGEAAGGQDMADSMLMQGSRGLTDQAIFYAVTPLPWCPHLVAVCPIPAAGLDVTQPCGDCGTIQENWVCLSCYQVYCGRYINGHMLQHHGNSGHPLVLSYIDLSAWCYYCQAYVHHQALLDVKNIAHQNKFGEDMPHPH

[25] = biological target: T1, Protein cereblon/Histone deacetylase 9 (Homo sapiens) (UniProt Q9UKV0+Q96SW2); test: Protac activity at CRBN/HDAC9 in human A549 cells assessed as reduction in HDAC9 protein level at 0.1 to 10 uM by Western blot analysis; assay type: cell-based; settings: dose 0.1-10 µM
T1 sequence (Q96SW2 whole entry, looked up): as the sequence (Q96SW2 whole entry, looked up) above
T1 sequence (Q9UKV0 whole entry, looked up): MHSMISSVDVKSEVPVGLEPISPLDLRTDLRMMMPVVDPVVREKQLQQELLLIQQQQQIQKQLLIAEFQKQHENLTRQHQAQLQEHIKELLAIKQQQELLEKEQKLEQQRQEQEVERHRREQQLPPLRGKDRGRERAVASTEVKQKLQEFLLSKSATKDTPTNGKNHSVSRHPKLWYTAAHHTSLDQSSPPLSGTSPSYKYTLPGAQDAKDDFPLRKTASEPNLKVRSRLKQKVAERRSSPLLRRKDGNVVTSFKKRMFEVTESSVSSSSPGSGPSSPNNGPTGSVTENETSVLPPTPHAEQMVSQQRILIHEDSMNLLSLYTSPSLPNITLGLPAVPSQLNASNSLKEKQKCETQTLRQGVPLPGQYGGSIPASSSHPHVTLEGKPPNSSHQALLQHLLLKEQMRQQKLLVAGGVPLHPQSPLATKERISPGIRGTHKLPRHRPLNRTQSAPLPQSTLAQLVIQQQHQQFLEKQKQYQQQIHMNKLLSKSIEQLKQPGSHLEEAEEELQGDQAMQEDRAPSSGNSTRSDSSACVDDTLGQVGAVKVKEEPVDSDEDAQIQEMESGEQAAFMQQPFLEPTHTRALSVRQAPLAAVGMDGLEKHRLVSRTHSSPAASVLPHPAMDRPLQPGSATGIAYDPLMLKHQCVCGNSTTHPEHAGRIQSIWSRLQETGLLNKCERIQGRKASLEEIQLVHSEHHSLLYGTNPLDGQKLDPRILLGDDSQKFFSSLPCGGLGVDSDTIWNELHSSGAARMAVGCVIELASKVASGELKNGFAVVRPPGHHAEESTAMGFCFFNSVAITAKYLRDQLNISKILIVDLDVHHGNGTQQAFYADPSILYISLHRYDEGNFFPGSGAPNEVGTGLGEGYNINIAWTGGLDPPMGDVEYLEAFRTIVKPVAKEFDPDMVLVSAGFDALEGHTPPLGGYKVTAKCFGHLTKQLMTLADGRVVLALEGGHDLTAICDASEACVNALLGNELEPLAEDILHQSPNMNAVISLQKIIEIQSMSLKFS

[26] = biological target: Cereblon/Ikaros (Homo sapiens) (UniProt Q96SW2+Q13422); test: Protac activity at CRBN/IKZF1 in human A549 cells assessed as reduction in IKZF1 protein level at 10 uM by Western blot analysis; assay type: cell-based
[27] = biological target: T1, Protein cereblon/Histone deacetylase 9 (Homo sapiens); test: Protac activity at CRBN/HDAC9 in human A549 cells assessed as degradation of HDAC9 at 0.1 to 10 uM by Western blot analysis; assay type: cell-based; settings: dose 0.1-10 µM
A549 [28] = test: Inhibition of HDAC8 foci formation in human A549 cells measured after 20 hrs by DAPI staining based immunofluorescence assay; assay type: functional, cell-based; settings: dose 0.5-8 µM
Jurkat = test: Antiproliferative activity against human Jurkat cells at 0.1 to 10 uM measured after 72 hrs by CCK-8 method; assay type: functional, cell-based; settings: dose 0.1-10 µM
[29] = biological target: T2, Protein cereblon/Histone deacetylase 8 (Homo sapiens) (UniProt Q9BY41+Q96SW2); test: Protac activity at CRBN/HDAC8 in human A549 cells at 10 uM measured preincubated for 20 hrs followed by drug washout and measured after 48 hrs by Western blot analysis; assay type: cell-based
T2 sequence (Q96SW2 whole entry, looked up): as the sequence (Q96SW2 whole entry, looked up) above
T2 sequence (Q9BY41 whole entry, looked up): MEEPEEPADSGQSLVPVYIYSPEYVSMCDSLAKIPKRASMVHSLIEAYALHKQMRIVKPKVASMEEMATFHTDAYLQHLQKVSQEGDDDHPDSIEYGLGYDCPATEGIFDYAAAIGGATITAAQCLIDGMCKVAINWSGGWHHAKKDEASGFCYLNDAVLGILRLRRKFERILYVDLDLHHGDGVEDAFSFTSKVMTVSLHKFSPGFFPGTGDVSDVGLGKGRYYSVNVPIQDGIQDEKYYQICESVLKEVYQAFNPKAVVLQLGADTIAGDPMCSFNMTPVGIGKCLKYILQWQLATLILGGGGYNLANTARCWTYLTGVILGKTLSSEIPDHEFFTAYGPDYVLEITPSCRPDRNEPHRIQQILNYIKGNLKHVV

[30] = biological target: T2, Protein cereblon/Histone deacetylase 8 (Homo sapiens); test: Protac activity at CRBN/HDAC8 in human HBEC3-KT cells at 0.1 to 10 uM measured after 20 hrs by Western blot analysis; assay type: cell-based; settings: dose 0.1-10 µM
A549 [31] = test: Inhibition of DNA damage repair in human A549 cells assessed as reduction in number of gamma-H2AX foci at 5 uM incubated for 24 hrs followed by irradiation for 4 hrs by immunofluorescence staining based analysis; assay type: functional, cell-based
A549 [32] = test: Antitumor activity against human A549 cells xenografted in NOD/SCID mouse assessed as increase in number of necrotic cells at 5 mg/kg, ip administered every 5 days measured at day 30 under irradiation condition by H and E staining based analysis; assay type: functional, organism-based; settings: time 30.0 day
A549 [33] = test: Antitumor activity against human A549 cells xenografted in NOD/SCID mouse assessed as decrease in HDAC8 expression at 5 mg/kg, ip administered every 5 days measured at day 30 under irradiation condition by […] analysis; assay type: functional, organism-based; settings: time 30.0 day
A549 [34] = test: Antitumor activity against human A549 cells xenografted in NOD/SCID mouse assessed as increase in gamma-H2AX expression at 5 mg/kg, ip administered every 5 days measured at day 30 under irradiation condition by […] analysis; assay type: functional, organism-based; settings: time 30.0 day

For `O=C1CCC(N2C(=O)c3cccc(NCc4cn(CCOCCOc5ccc(Cn6ccc7ccc(C(=O)NO)cc76)cc5)nn4)c3C2=O)C(=O)N1` (stereo unspecified), the IC50 (A549 [1]; A549, 72 h) was 9.55 µM, the Activity (A549 [1]; dose <= 1.5 µM) was “Dose-Dependent Effect” and the inhibition (A549 [2]) was “Active”. The inhibition (HCT-116 [3]) was “Active”, the Activity (A549 [4]) was “Active” and the Activity (A549 [5]) was “Active”. For the same molecule, the Activity (A549 [6]) was “Active”, the Activity (A549 [7]) was “Active” and the Activity (A549 [8]) was “Active”. For the same molecule, the Activity (A549 [9]) was “Active”, the Activity (A549 [10]) was “Active” and the Activity (A549 [11]) was “Active”. For the same molecule, the viability at 20 µM (A549 [12]) was 6.84%, the Activity (A549 [13]) was 70.4% and the Activity (A549 [14]) was 21.8%. For the same molecule, the Activity (A549 [15]) was 22.2%, the Activity (A549 [16]) was 0% and the Activity (A549 [17]) was “Dose-Dependent Effect”. The viability at 5 µM (A549 [18]) was 77%, the Activity (A549 [19]) was 15.4% and the Activity (A549 [20]) was 6.19%. The Activity (HCT-116 [21]) was 10%, the Activity (A549 [22]) was “inactive” and the Activity [23] was “inactive”. The Activity [24] was “inactive”, the Activity [25] was “inactive” and the Activity [26] was “Active”. The Activity [27] was “inactive”, the inhibition (A549 [28]) was “Dose-Dependent Effect” and the Activity (Jurkat) was “Active”. The Activity [29] was “inactive”, the Activity [30] was “inactive” and the inhibition (A549 [31]) was “Active”. For the same molecule, the Activity (A549 [32]) was “Active”, the Activity (A549 [33]) was “Active” and the Activity (A549 [34]) was “Active”.

From ChEMBL document CHEMBL5316263, “Structure-Based Discovery of Selective Histone Deacetylase 8 Degraders with Potent Anticancer Activity” (J Med Chem, 2023)
